Data reported in article PMC10060639, “Prediction and bioactivity of small-molecule antimicrobial peptides from Protaetia brevitarsis Lewis larvae” (Frontiers in Microbiology, 2023).
Ends that are not written are not given here.

Assays:
[1] = system: B. thuringiensis; test: agar punch method, inhibition circle; type: cell-based, Bacillus thuringiensis; settings: 6 mm hole, 55 μL of 1 mg/mL, NA, 37°C (Fig. S3C: 30°C), 16–18 h, mean ± SD, three replicates, + control given per plate group
Description: (§1) Staphylococcus aureus CMCC(B) 26003, B. thuringiensis, E. coli, and P. aeruginosa CMCC(B)10104 were cultured in NA medium and C. albicans CMCC(F) 98001 was cultured in SDA medium. They were incubated in a constant-temperature (bacteria: 37°C; fungi: 28°C) incubator for 16–20 h. Thereafter, single colonies were picked and incubated in 50 mL MHB at 160 rpm/min at the optimal growth temperature (bacteria: 37°C; fungi: 28°C). Microbial suspensions of 1 × 10^6 CFU/mL were then prepared ([Chen et al., 2016]).
(§2) 100 μL of 1 × 10^6 CFU/mL microbial suspension (E. coli, P. aeruginosa CMCC(B)10104, B. thuringiensis, S. aureus CMCC(B) 26003, or C. albicans CMCC(F) 98001) was evenly applied to dishes containing 20 mL NA (bacteria) or SDA (fungi). After the microbial solution solidified, six holes per dish were punched with a sterile pipette tip of 6 mm in diameter, with each hole spaced >20 mm apart and > 10 mm apart from the edge of the dish. […] Next, 55 μL of 1 mg/mL control/treatment was added to each hole and incubated in a constant-temperature (bacteria: 37°C; fungi: 28°C) incubator for 16–18 h ([Chen et al., 2016]; [Gong et al., 2022]), with three replicates for each treatment group. The diameter of the inhibition circle was measured using ImageJ software (National Institutes of Health, United States) in order to preliminarily determine whether the candidate peptides had inhibitory activity.

[2] = system: P. aeruginosa CMCC(B)10104; test: agar punch method, inhibition circle; type: cell-based, Pseudomonas aeruginosa; settings: 6 mm hole, 55 μL of 1 mg/mL, NA, 37°C, 16–18 h, mean ± SD, three replicates, + control given per plate group
Description: as §1, §2

[3] = system: S. aureus CMCC(B) 26003; test: agar punch method, inhibition circle; type: cell-based, Staphylococcus aureus; settings: 6 mm hole, 55 μL of 1 mg/mL, NA, 37°C, 16–18 h, mean ± SD, three replicates, + control given per plate group
Description: as §1, §2

[4] = system: C. albicans CMCC(F) 98001; test: agar punch method, inhibition circle; type: cell-based, Candida albicans; settings: 6 mm hole, 55 μL of 1 mg/mL, SDA, 28°C, 16–18 h, mean ± SD, three replicates, + control given per plate group
Description: as §1, §2

[5] = system: E. coli; test: agar punch method, inhibition circle; type: cell-based, Escherichia coli; settings: 6 mm hole, 55 μL of 1 mg/mL, NA, 37°C, 16–18 h, mean ± SD, three replicates, + control given per plate group
Description: as §1, §2

[6] = system: B. thuringiensis; type: cell-based, Bacillus thuringiensis
Description: as §1
(§3) The MIC values of five candidate peptides (FD4, FD10, FD12, FD14, and FD15), which were selected based on physicochemical properties and antimicrobial effects (determined by the agar punch method), were evaluated using a micro-broth dilution method ([Zhou and Zhou, 2018]). Serial two-fold dilutions of the candidate peptides were prepared in 96-well plates containing the same microbial inoculum (E. coli, P. aeruginosa CMCC(B)10104, B. thuringiensis, S. aureus CMCC(B) 26003, or C. albicans CMCC(F) 98001). The plates were incubated (bacteria: 37°C; fungi: 28°C) for 16–18 h. Ampicillin was used as the positive control. The MIC was defined as the lowest peptide concentration where no visible growth occurred ([Diao et al., 2014]). The experiment was conducted in triplicate.

[7] = system: P. aeruginosa CMCC(B)10104; type: cell-based, Pseudomonas aeruginosa; settings: CMCC(B)10104
Description: as §1, §3

[8] = system: E. coli; type: cell-based, Escherichia coli
Description: as §1, §3

[9] = system: S. aureus CMCC(B) 26003; type: cell-based, Staphylococcus aureus; settings: CMCC(B) 26003
Description: as §1, §3

[10] = system: E. coli; type: cell-based, Escherichia coli; remark: listed apart in the source
Description: (§4) E. coli and S. aureus CMCC(B) 26003 (1 × 10^6 CFU/mL) were incubated in MHB with various final physiological concentrations of serum salts (150 mM NaCl, 4.5 mM KCl, 1 mM MgCl2, and […]). 50 μL of these E. coli or S. aureus CMCC(B) 26003 suspensions and 50 μL of AMP (serially diluted two-fold to a final concentration of 256 μg/mL) were added to a 96-well plate and incubated at 37°C for 16–18 h ([Chou et al., 2016]). The MIC values were then determined. The experiment was conducted in triplicate.

[11] = system: S. aureus CMCC(B) 26003; type: cell-based, Staphylococcus aureus; settings: CMCC(B) 26003; remark: listed apart in the source
Description: as §4

| Sequence | Inhibition circle diameter (mm) B. thuringiensis [1] [mm] | Inhibition circle diameter (mm) P. aeruginosa CMCC(B)10104 [2] [mm] | Inhibition circle diameter (mm) S. aureus CMCC(B) 26003 [3] [mm] | Inhibition circle diameter (mm) C. albicans CMCC(F) 98001 [4] [mm] | Inhibition circle diameter (mm) E. coli [5] [mm] | also measured |
| --- | --- | --- | --- | --- | --- | --- |
| AFQRTIRKFL [FD5] | 0 | 0 | 0 | 0 | 0 | – |
| ANWDKVIR [FD13] | 0 | 0 | 0 | 0 | 0 | – |
| ANWKKVIR [FD14] | – | – | – | – | – | MIC (μg/mL) B. thuringiensis [6]: 256 µg/mL; MIC (μg/mL) P. aeruginosa CMCC(B)10104 [7]: 256 µg/mL; MIC (μg/mL) E. coli [8]: 256 µg/mL |
| FPVGRVHRLL [FD11] | 0 | 0 | 0 | 0 | 0 | – |
| IRAWVAWRNR [FD3] | 0 | 0 | 0 | 0 | 0 | – |
| IVHLLTKMTK [FD4] | – | – | – | – | – | MIC (μg/mL) S. aureus CMCC(B) 26003 [9]: 256 µg/mL |
| KIYVLLRRQA [FD12] | – | – | – | – | – | MIC (μg/mL) B. thuringiensis [6]: 128 µg/mL; MIC, Control [10]: 32 mg/L; MIC, FeCl3 [10]: 32 mg/L; MIC, KCl [10]: 16 mg/L; MIC, MgCl2 [10]: 64 mg/L; MIC, NaCl [10]: 64 mg/L; MIC (μg/mL) S. aureus CMCC(B) 26003 [9]: 16 µg/mL; MIC, Control [11]: 16 mg/L; MIC, FeCl3 [11]: 32 mg/L; MIC, KCl [11]: 8 mg/L; MIC, MgCl2 [11]: 32 mg/L; MIC, NaCl [11]: 32 mg/L; MIC (μg/mL) E. coli [8]: 32 µg/mL |
| KLLVPRCR [FD6] | 0 | 0 | 0 | 0 | 0 | – |
